Laboratory results taken from BindingDB's records for doi:10.1016/j.bmcl.2010.11.060 (Msd, 2010).

Test: Inhibition of MCP1-mediated human THP cell migration

Row | Structure (SMILES) | IC50
1 | O=c1[nH]ccc2c(S(=O)(=O)N3CCCNCC3)cccc12 | 6.92 µM
2 | Nc1nccc2cc(CNCCc3ccccc3)ccc12 | > 31.6 µM
3 | C[C@@H](N)[C@H]1CC[C@H](C(=O)Nc2ccncc2)CC1 [4-[(1R)-1-aminoethyl]-N-(pyridin-4-yl)cyclohexane-1-carboxamide] | 2.63 µM
4 | O=S(=O)(c1cccc2cnccc12)N1CCCNCC1 [AT877] | 6.92 µM
